Counter-ions that a name gives are not always drawn.

T1 sequence (P50406 whole entry): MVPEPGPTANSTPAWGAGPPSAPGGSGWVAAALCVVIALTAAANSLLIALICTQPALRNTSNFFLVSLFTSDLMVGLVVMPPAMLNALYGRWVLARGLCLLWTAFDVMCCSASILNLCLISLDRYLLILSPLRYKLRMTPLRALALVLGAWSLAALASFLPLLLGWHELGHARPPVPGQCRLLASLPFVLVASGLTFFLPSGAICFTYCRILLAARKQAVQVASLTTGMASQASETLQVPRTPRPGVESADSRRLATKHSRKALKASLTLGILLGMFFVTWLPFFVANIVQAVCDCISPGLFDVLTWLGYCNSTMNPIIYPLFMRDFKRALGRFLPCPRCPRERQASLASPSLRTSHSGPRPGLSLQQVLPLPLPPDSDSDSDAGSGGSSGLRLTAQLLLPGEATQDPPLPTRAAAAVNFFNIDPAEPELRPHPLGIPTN

Test system in the first data set: not given
Test: not given
Details: not given
`COc1ccc(S(=O)(=O)n2cc(CC3CCNCC3)c3cc(F)ccc32)cc1OC` (as salt: hydrochloride) [Example 18, 1-[(3,4-dimethoxyphenyl)sulfonyl]-5-fluoro-3-(piperidin-4-ylmethyl)-1H-indole]: the melting point (usually the temperature, or range, at which the solid turns liquid) was 246 °C.
Take `O=S(=O)(c1cccc2cccnc12)n1cc(CC2CCNCC2)c2cc(F)ccc21` (as salt: hydrochloride) [Example 20, 8-{[5-fluoro-3-(piperidin-4-ylmethyl)-1H-indol-1-yl]sulfonyl}quinoline]: the melting point worked out at 245 °C.
Consider `N#Cc1ccc(S(=O)(=O)n2cc(CC3CCNCC3)c3cc(F)ccc32)cc1` (as salt: hydrochloride) [Example 19, 4-{[5-fluoro-3-(piperidin-4-ylmethyl)-1H-indol-1-yl]sulfonyl}benzonitrile], for which the melting point turned out to be 249 °C.
In turn, `Nc1ccc(S(=O)(=O)n2cc(CC3CCNCC3)c3ccc(F)cc32)cc1` (as salt: hydrochloride) [Example 28] had a melting point of 198 to 200 °C.

A further data set has as its target T1, human cloned 5-HT6 receptors (Homo sapiens, UniProt P50406).
T1 construct: expressed in transfected cells; host or cells: Hela cells
Description: Comparative evaluation of 5-HT6 binding affinity ([3H]-LSD displacement, Hela cell membranes).
Details: not given
On the procedure:
The affinity of test compounds for the serotonin 5-HT6 receptor is evaluated in the following manner. Cultured Hela cells expressing human cloned 5-HT6 receptors are harvested and centrifuged at low speed (1,000×g) for 10.0 min to remove the culture media. The harvested cells are suspended in half volume of fresh physiological phosphate buffered saline solution and recentrifuged at the same speed. This operation is repeated. The collected cells are then homogenized in ten volumes of 50 mM Tris.HCl (pH 7.4) and 0.5 mM EDTA. The homogenate is centrifuged at 40,000×g for 30.0 min and the precipitate is collected. The obtained pellet is resuspended in 10 volumes of Tris.HCl buffer and recentrifuged at the same speed. The final pellet is suspended in a small volume of Tris.HCl buffer and the tissue protein content is determined in aliquots of 10-25 μl volumes. Bovine Serum Albumin is used as the standard in the protein determination according to the method described in Lowry et al., J. Biol. Chem., 193:265 (1951). The volume of the suspended cell membranes is adjusted to give a tissue protein concentration of 1.0 mg/ml of suspension. The prepared membrane suspension (10 times concentrated) is aliquoted in 1.0 ml volumes and stored at −70° C. until used in subsequent binding experiments.
Binding experiments are performed in a 96 well microtiter plate format, in a total volume of 200 μl. […] The test compounds are added in 20.0 μl volume.
The reaction is allowed to proceed in the dark for 120 min at room temperature, at which time, the bound ligand-receptor complex is filtered off on a 96 well unifilter with a Packard Filtermate® 196 Harvester. The bound complex caught on the filter disk is allowed to air dry and the radioactivity is measured in a Packard TopCount® equipped with six photomultiplier detectors, after the addition of 40.0 μl Microscint®-20 scintillant to each shallow well. The unifilter plate is heat-sealed and counted in a PackardTopCount® with a tritium efficiency of 31.0%.
Binding in the presence of varying concentrations of test compound is expressed as a percentage of specific binding in the absence of test compound. The results are plotted as log % bound versus log concentration of test compound. […] A linear regression line of data points is plotted, from which the IC50 value is determined and the Ki value is determined based upon the following equation: […]
where L is the concentration of the radioactive ligand used and KD is the dissociation constant of the ligand for the receptor, both expressed in nM.
In the case of `CC(C)C[C@H]1C(=O)N2CCC[C@H]2[C@]2(O)O[C@](NC(=O)[C@@H]3C=C4c5cccc6[nH]c(Br)c(c56)C[C@H]4N(C)C3)(C(C)C)C(=O)N12` [Bromocriptine, reference compound], the inhibition constant Ki – broadly, the dissociation constant of the complex between target and ligand, obtained from inhibition or displacement – is 0.023 µM.

The same data set, now with this note: [3H]-LSD 3.0 nM; membranes of Hela cells expressing human cloned 5-HT6 receptors; 120 min, room temperature; read-out: 5-HT6 Binding Ki.
As for `COc1ccc(S(=O)(=O)n2cc(CC3CCNCC3)c3ccc(F)cc32)cc1OC` [Example 23, 6-flouro-1-(3,4-dimethoxyphenylsulfonyl)-3-(4-piperidinylmethyl)-1H-indole], the inhibitory constant (Ki) came to 0.019 µM.
Consider `N#Cc1ccc(S(=O)(=O)n2cc(CC3CCNCC3)c3cc(F)ccc32)cc1` [Example 19, 4-{[5-fluoro-3-(piperidin-4-ylmethyl)-1H-indol-1-yl]sulfonyl}benzonitrile], for which the inhibitory constant (Ki) turned out to be 0.162 µM.
`CN1CCN(C2=Nc3ccccc3Oc3ccc(Cl)cc32)CC1` [Loxapine, reference compound]: the Ki was found to be 0.0414 µM.
Still for that read-out and setting: for `O=S(=O)(c1ccccc1F)n1cc(CC2CCNCC2)c2ccc(F)cc21` [Example 26, 6-flouro-1-(2-fluorophenylsulfonyl)-3-(4-piperidinylmethyl)-1H-indole] the value was 0.017 µM; for `Nc1ccc(S(=O)(=O)n2cc(CC3CCNCC3)c3cc(F)ccc32)cc1` [Example 7, 4-{[5-Fluoro-3-(4-piperidinylmethyl)-1H-indole-1-yl]sulfonyl}aniline], 0.001 µM.
Turning to `O=S(=O)(c1cccc2cccnc12)n1cc(CC2CCNCC2)c2cc(F)ccc21` [Example 20, 8-{[5-fluoro-3-(piperidin-4-ylmethyl)-1H-indol-1-yl]sulfonyl}quinoline], the inhibition constant Ki is 0.002 µM.
For `O=S(=O)(c1ccccc1)n1cc(CC2CCNCC2)c2cc(F)ccc21` [Example 6, 5-Fluoro-1-phenylsulfonyl)-3-(4-piperidinylmethyl)-1H-indole hydrochloride], the inhibition constant Ki amounted to 0.012 µM.
Take `O=S(=O)(c1ccccc1)n1cc(CC2CCNCC2)c2ccc(F)cc21` [Example 21, 6-flouro-1-(phenylsulfonyl)-3-(4-piperidinylmethyl)-1H-indole]: the inhibitory constant (Ki) came to 0.013 µM.
Still for that read-out and setting: the same measure for `O=S(=O)(c1cccc2ccccc12)n1cc(CC2CCNCC2)c2cc(F)ccc21` [Example 10, 5-Fluoro-1-(1-naphthylsulfonyl)-3-(4-piperidinylmethyl)-1H-indole hydrochloride]: 0.013 µM; for `O=S(=O)(c1ccc(Cl)s1)n1cc(CC2CCNCC2)c2ccc(F)cc21` [Example 25, 6-flouro-1-(5-chlorothien-2-ylsulfonyl)-3-(4-piperidinylmethyl)-1H-indole]: 0.018 µM; for `O=S(=O)(c1cccc2ccccc12)n1cc(CC2CCNCC2)c2ccc(F)cc21` [Example 22, 6-flouro-1-(1-naphthylsulfonyl)-3-(4-piperidinylmethyl)-1H-indole]: 0.024 µM.
With `Nc1ccc(S(=O)(=O)n2cc(CC3CCNCC3)c3ccc(F)cc32)cc1` [Example 28], the Ki came to 0.003 µM.
With `O=S(=O)(c1cccc(F)c1)n1cc(CC2CCNCC2)c2ccc(F)cc21` [Example 27, 6-flouro-1-(3-fluorophenylsulfonyl)-3-(4-piperidinylmethyl)-1H-indole], the Ki stood at 0.029 µM.
Take `O=S(=O)(c1ccccc1Cl)n1cc(CC2CCNCC2)c2ccc(F)cc21` [Example 24, 6-flouro-1-(2-chlorophenylsulfonyl)-3-(4-piperidinylmethyl)-1H-indole]: the Ki is 0.013 µM.
Take `COc1ccc(S(=O)(=O)n2cc(CC3CCNCC3)c3cc(F)ccc32)cc1OC` [Example 18, 1-[(3,4-dimethoxyphenyl)sulfonyl]-5-fluoro-3-(piperidin-4-ylmethyl)-1H-indole]: the inhibitory constant (Ki) stood at 0.008 µM.
